Where two headings read alike, the source gives them in different places.
Tests used:
[1] = Pharmacokinetics of acteoside and its metabolites in rat plasma after oral acteoside (UPLC-QqQ-MS); assay type: in vivo, male Sprague–Dawley rats; settings: for AUC(0-inf) / AUC(0-t) / Tmax / half-life / Cmax / MRT last / MRT inf: male, Sprague-Dawley, rat, plasma, po, 100 mg/kg; for MRT last: read-out: MRT(0-t); for MRT inf: read-out: MRT(0-∞); for Cmax of metabolite, WCP group relative to UCP group: following oral acteoside 100 mg/kg
Source text: After a week of acclimatization, rats were split into three groups at random: the wine-processed Cistanche polysaccharide group (WCP group), the unprocessed Cistanche polysaccharide group (UCP group), and the blank control group (Control group). Six rats each group were raised in the same cage for breeding. Prior to the experiment, provide water and regular laboratory meals to the rats at will and fast for one night before the experiment. In order to ensure the continuous intake of Cistanche polysaccharides, it was calculated according to the requirements of the Chinese Pharmacopoeia ([16]) based on the daily dosage of Cistanche for adults, the polysaccharide yield of Cistanche polysaccharides and the equivalent conversion formula of the drug administration between humans and rats ([17]). An appropriate amount of raw Cistanche polysaccharide and Cistanche wine polysaccharide were weighed, dissolved in pure water, and prepared with 15.06 g·kg^-1 administration solution for continuous administration for 21 days. After fasting overnight, on day 22, two fresh fecal samples were collected from each rat, put straight into a sterile tube from the anus, avoiding contact with skin or urine, and stored in a -80°C freezer immediately after freezing with liquid nitrogen for subsequent analysis. For the pharmacokinetics, in a 1.5 mL heparinized centrifuge tube, 0.3 mL of continuous blood collected from the orbital vein was taken from 0 min, 5 min, 10 min, 30 min, 1.0 […], and 36 h following oral administration of acteoside (100 mg/kg) in the three groups. Using a cryo-centrifuge, plasma samples were produced by centrifuging at 800 g for ten minutes at 4°C. After that, plasma samples were gathered and kept for later examination at -80°C. […] Following this,20 μL of genistein (1 μg/mL IS) solution and 600 μL of cold acetonitrile were then included and centrifuged for 5 min, the […] proteins were separated by vortexing for 5 min, and then they were spun down for 15 min at 4°C at 14,000 rpm. The supernatant was gathered and dried at 40°C with a light nitrogen stream. The dried remnant was then immersed in 100 μL of 25% aqueous acetonitrile fluid, and centrifugation was performed again for 10 min at 4°C at 14,000 rpm. Ultimately, the LC-MS/MS system was injected with 2 μL of the liquid for analysis. A 1.7 μm and 2.1 × 100 mm I.D. […] With a column temperature of 30°C, the flow rate was fixed at 0.3 mL/min. In the mass spectrometry analysis, negative ionization mode was performed with the following optimized parameters: capillary voltage, 3.0 kV; desolvation temperature, 400°C. […] Thus, multiple reaction monitoring (MRM) of the acteoside transitions at 623.37 → 161.02 m/z, caffeic acid transitions at 179.01 → 135.03 m/z, hydroxytyrosol transitions at 153.03 → 122.95 m/z, genistein transitions at 269.08 → 132.57 m/z was used for quantification. […] Data were processed using Masslynx workstation data acquisition and qualitative analysis software (4.1, Waters, USA). Using the DAS program (Chinese Pharmacological Society, Beijing, China), pharmacokinetic parameters were estimated.

[2] = assay type: physicochemical; settings: rat; for Short-term stability (RSD,%): 4 h; for Post-preparation stability (RSD,%): 24 h; for Long-term stability (RSD,%): 15 days
Procedure: A 4°C freezer was then used to make and store the stock solution (1 mg/mL). Moreover, 50% methanol was used to dilute 1 μg/mL of the IS working solution. […] Before being analyzed, the entire set of QC samples were kept at −80°C. An examination of stability using QC samples at low, medium, and high doses. Short-term stability was measured by injecting samples after staying 4 h at room temperature (25°C). After preparation, the sample was kept at 4°C for 24 h, and the dosage was injected to ascertain the sample’s stability. To determine long-term stability, samples were frozen at −80°C for 15 days before being injected. By thawing the samples three times in a row at room temperature and a freezer at −20°C, the freeze–thaw stability was ascertained.

[3] = acteoside in rat plasma, oral acteoside 100 mg/kg, Control group, n = 6
[4] = acteoside in rat plasma, oral acteoside 100 mg/kg, UCP group, n = 6
[5] = acteoside in rat plasma, oral acteoside 100 mg/kg, WCP group, n = 6
[6] = metabolite in rat plasma following oral acteoside 100 mg/kg, Control group, n = 6
[7] = metabolite in rat plasma following oral acteoside 100 mg/kg, Control group, n = 6, read-out: Cmax
[8] = metabolite in rat plasma following oral acteoside 100 mg/kg, UCP group, n = 6
[9] = metabolite in rat plasma following oral acteoside 100 mg/kg, UCP group, n = 6, read-out: Cmax
[10] = metabolite in rat plasma following oral acteoside 100 mg/kg, WCP group, n = 6
[11] = metabolite in rat plasma following oral acteoside 100 mg/kg, WCP group, n = 6, read-out: Cmax

C[C@@H]1O[C@@H](O[C@@H]2[C@@H](O)[C@H](OCCc3ccc(O)c(O)c3)O[C@H](CO)[C@H]2OC(=O)/C=C/c2ccc(O)c(O)c2)[C@H](O)[C@H](O)[C@H]1O [Acteoside, acteoside]
AUC(0-inf) [1, 3]: 4360 ± 130 ng·h/mL | AUC(0-t) [1, 3]: 4200 ± 153 ng·h/mL | Tmax [1, 3]: 0.5 h | half-life [1, 3]: 2.06 ± 1.3 h | Cmax ([1]; acteoside in rat plasma, oral acteoside 100 mg/kg, Control group, n = 6, read-out: Cmax): 863 ± 63.4 ng/mL | MRT last [1, 3]: 3.94 ± 0.165 h | MRT inf [1, 3]: 4.34 ± 0.512 h | AUC(0-t) ([1]; acteoside in rat plasma, oral acteoside 100 mg/kg, UCP group (21 days UCP before), n = 6): 4980 ± 231 ng·h/mL | AUC(0-inf) [1, 4]: 5050 ± 267 ng·h/mL | Tmax [1, 4]: 0.75 h | Cmax ([1]; acteoside in rat plasma, oral acteoside 100 mg/kg, UCP group, n = 6, read-out: Cmax): 1030 ± 98.3 ng/mL | MRT last [1, 4]: 4.94 ± 0.165 h | MRT inf [1, 4]: 5.29 ± 0.629 h | AUC(0-t) ([1]; acteoside in rat plasma, oral acteoside 100 mg/kg, WCP group (21 days WCP before), n = 6): 6660 ± 543 ng·h/mL | AUC(0-inf) [1, 5]: 6690 ± 633 ng·h/mL | Tmax [1, 5]: 0.75 h | Cmax ([1]; acteoside in rat plasma, oral acteoside 100 mg/kg, WCP group, n = 6, read-out: Cmax): 1590 ± 103 ng/mL | MRT last [1, 5]: 4.996 ± 0.032 h | MRT inf [1, 5]: 5.6 ± 0.837 h | Cmax ([1]; rat plasma, oral acteoside 100 mg/kg, Control group, read-out: mean Cmax of acteoside): 863 ng/mL | Cmax ([1]; rat plasma, oral acteoside 100 mg/kg, UCP group, read-out: mean Cmax of acteoside): 1030 ng/mL | Cmax ([1]; rat plasma, oral acteoside 100 mg/kg, WCP group, read-out: mean Cmax of acteoside): 1590 ng/mL | AUC(0-∞) of acteoside, increase after UCP relative to control ([1]; rats, oral acteoside 100 mg/kg): 1.16 times | AUC(0-∞) of acteoside, increase after WCP relative to control ([1]; rats, oral acteoside 100 mg/kg): 1.54 times | Cmax of acteoside, UCP group relative to control group ([1]; rats, oral acteoside 100 mg/kg): 1.19 times | Cmax of acteoside, WCP group relative to control group ([1]; rats, oral acteoside 100 mg/kg): 1.84 times | t1/2 of acteoside, WCP group relative to UCP group ([1]; rats, oral acteoside 100 mg/kg): 1.18 times | Freeze–thaw stability (RSD,%) ([2]; 25 ng/mL): 7.93% | Freeze–thaw stability (RSD,%) ([2]; 200 ng/mL): 4.56% | Freeze–thaw stability (RSD,%) ([2]; 1000 ng/mL): 4.45% | Short-term stability (RSD,%) ([2]; 25 ng/mL): 6.91% | Short-term stability (RSD,%) ([2]; 200 ng/mL): 3.15% | Short-term stability (RSD,%) ([2]; 1000 ng/mL): 2.79% | Post-preparation stability (RSD,%) ([2]; 25 ng/mL): 7.03% | Post-preparation stability (RSD,%) ([2]; 200 ng/mL): 3.46% | Post-preparation stability (RSD,%) ([2]; 1000 ng/mL): 3.68% | Long-term stability (RSD,%) ([2]; 25 ng/mL): 8.28% | Long-term stability (RSD,%) ([2]; 200 ng/mL): 6.67% | Long-term stability (RSD,%) ([2]; 1000 ng/mL): 4.99%

O=C(O)/C=C/c1ccc(O)c(O)c1 [Caffeic acid, caffeic acid]
AUC(0-inf) [1, 6]: 110 ± 15.4 ng·h/mL | AUC(0-t) [1, 6]: 76.1 ± 13.3 ng·h/mL | Tmax [1, 6]: 0.75 h | half-life [1, 6]: 2.17 ± 0.693 h | Cmax [1, 7]: 30.4 ± 14.2 ng/mL | MRT last [1, 6]: 1.56 ± 0.172 h | MRT inf [1, 6]: 2.51 ± 0.273 h | AUC(0-inf) [1, 8]: 117 ± 13.3 ng·h/mL | AUC(0-t) [1, 8]: 100 ± 17.7 ng·h/mL | Tmax [1, 8]: 0.75 h | Cmax [1, 9]: 44.1 ± 15.8 ng/mL | MRT last [1, 8]: 1.54 ± 0.166 h | MRT inf [1, 8]: 2.18 ± 0.267 h | AUC(0-inf) [1, 10]: 144 ± 26.7 ng·h/mL | AUC(0-t) [1, 10]: 125 ± 25.9 ng·h/mL | Tmax [1, 10]: 0.75 h | half-life [1, 10]: 1.29 ± 0.914 h | Cmax [1, 11]: 55.5 ± 16.9 ng/mL | MRT last [1, 10]: 1.52 ± 0.161 h | MRT inf [1, 10]: 2.1 ± 0.256 h | Cmax of metabolite, WCP group relative to UCP group ([1]; rats): 1.26 times | Freeze–thaw stability (RSD,%) ([2]; 25 ng/mL): 9.14% | Freeze–thaw stability (RSD,%) ([2]; 200 ng/mL): 8.23% | Freeze–thaw stability (RSD,%) ([2]; 1000 ng/mL): 7.08% | Short-term stability (RSD,%) ([2]; 25 ng/mL): 7.78% | Short-term stability (RSD,%) ([2]; 200 ng/mL): 7.34% | Short-term stability (RSD,%) ([2]; 1000 ng/mL): 4.91% | Post-preparation stability (RSD,%) ([2]; 25 ng/mL): 8.33% | Post-preparation stability (RSD,%) ([2]; 200 ng/mL): 7.87% | Post-preparation stability (RSD,%) ([2]; 1000 ng/mL): 6.87% | Long-term stability (RSD,%) ([2]; 25 ng/mL): 9.75% | Long-term stability (RSD,%) ([2]; 200 ng/mL): 8.56% | Long-term stability (RSD,%) ([2]; 1000 ng/mL): 8.43%

OCCc1ccc(O)c(O)c1 [Hydroxytyrosol, hydroxytyrosol]
AUC(0-inf) [1, 6]: 42.5 ± 4.24 ng·h/mL | AUC(0-t) [1, 6]: 40.6 ± 3.24 ng·h/mL | Tmax [1, 6]: 0.25 h | half-life [1, 6]: 0.813 ± 0.129 h | Cmax [1, 7]: 30.3 ± 10.9 ng/mL | MRT last [1, 6]: 1.2 ± 0.132 h | MRT inf [1, 6]: 1.38 ± 0.145 h | AUC(0-inf) [1, 8]: 60.5 ± 5.72 ng·h/mL | AUC(0-t) [1, 8]: 56.5 ± 5.41 ng·h/mL | Tmax [1, 8]: 0.25 h | half-life [1, 8]: 0.908 ± 0.106 h | Cmax [1, 9]: 44.4 ± 14 ng/mL | MRT last [1, 8]: 1.19 ± 0.124 h | MRT inf [1, 8]: 1.46 ± 0.153 h | AUC(0-inf) [1, 10]: 91.3 ± 6.92 ng·h/mL | AUC(0-t) [1, 10]: 90.6 ± 6.73 ng·h/mL | Tmax [1, 10]: 0.25 h | half-life [1, 10]: 0.537 ± 0.116 h | Cmax [1, 11]: 71.4 ± 32 ng/mL | MRT last [1, 10]: 1.27 ± 0.139 h | MRT inf [1, 10]: 1.54 ± 0.168 h | Cmax of metabolite, WCP group relative to UCP group ([1]; rats): 1.61 times | Freeze–thaw stability (RSD,%) ([2]; 25 ng/mL): 7.04% | Freeze–thaw stability (RSD,%) ([2]; 200 ng/mL): 5.78% | Freeze–thaw stability (RSD,%) ([2]; 1000 ng/mL): 4.24% | Short-term stability (RSD,%) ([2]; 25 ng/mL): 5.34% | Short-term stability (RSD,%) ([2]; 200 ng/mL): 3.26% | Short-term stability (RSD,%) ([2]; 1000 ng/mL): 2.44% | Post-preparation stability (RSD,%) ([2]; 25 ng/mL): 6.32% | Post-preparation stability (RSD,%) ([2]; 200 ng/mL): 4.89% | Post-preparation stability (RSD,%) ([2]; 1000 ng/mL): 3.21% | Long-term stability (RSD,%) ([2]; 25 ng/mL): 7.78% | Long-term stability (RSD,%) ([2]; 200 ng/mL): 5.86% | Long-term stability (RSD,%) ([2]; 1000 ng/mL): 4.63%

Source: paper PMC12083017, “Enhanced oral bioavailability of two Cistanche polysaccharides in acteoside: an in-depth analysis of intestinal flora, short-chain fatty acids, and pharmacokinetic regulation” (Frontiers in Nutrition, 2025)
